Assay results reported in PubChem BioAssay AID1963445 (Molecular Pharmacology Branch, DTP, NCI, 2024).
pIC50: −log10 of the molar value. “And” between values parts separate entries of the source, which are not always exact repeats. Equal entries are not always repeated. One block for each compound: values may come before it.

System: MCF7 complex spheroid growth, % test/control
Assay: Anticancer human tumor MCF7 cell line growth inhibition [Asc];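 note: spheroids exposed to compounds for 7 days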;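 for viability, T/C: 100% = DMSO vehicle control wells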
Details: for viability, T/C: stronger effect = lower value
Procedure, shortened: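 Tumor cells were grown as multicellular spheroids with stromal HUVEC and mesenchymal stem cells and treated singly or in combination. Concentrations fell in half-log steps from the clinical Cmax, or from 10 microM where none was known.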

[1] = curve of first compound, second compound 0.0316 µM
[2] = curve of first compound, second compound 0.1 µM
[3] = curve of first compound, second compound 0.316 µM
[4] = curve of first compound, second compound 1 µM
[5] = curve of first compound, second compound 3.16 µM
[6] = curve of first compound, second compound 10 µM
[7] = second compound 0.0316 µM, first compound 0.0316 µM
[8] = second compound 0.0316 µM, first compound 0.1 µM
[9] = second compound 0.0316 µM, first compound 0.316 µM
[10] = second compound 0.0316 µM, first compound 1 µM
[11] = second compound 0.1 µM, first compound 0.0316 µM
[12] = second compound 0.1 µM, first compound 0.1 µM
[13] = second compound 0.1 µM, first compound 0.316 µM
[14] = second compound 0.1 µM, first compound 1 µM
[15] = second compound 0.316 µM, first compound 0.0316 µM
[16] = second compound 0.316 µM, first compound 0.1 µM
[17] = second compound 0.316 µM, first compound 0.316 µM
[18] = second compound 0.316 µM, first compound 1 µM
[19] = second compound 1 µM, first compound 0.0316 µM
[20] = second compound 1 µM, first compound 0.1 µM
[21] = second compound 1 µM, first compound 0.316 µM
[22] = second compound 1 µM, first compound 1 µM
[23] = second compound 3.16 µM, first compound 0.0316 µM
[24] = second compound 3.16 µM, first compound 0.1 µM
[25] = second compound 10 µM, first compound 0.0316 µM
[26] = second compound 10 µM, first compound 0.1 µM
[27] = second compound 0.0316 µM, first compound 0.00316 µM
[28] = second compound 0.0316 µM, first compound 0.01 µM
[29] = second compound 0.1 µM, first compound 0.00316 µM
[30] = second compound 0.1 µM, first compound 0.01 µM
[31] = second compound 0.316 µM, first compound 0.00316 µM
[32] = second compound 0.316 µM, first compound 0.01 µM
[33] = second compound 1 µM, first compound 0.00316 µM
[34] = second compound 1 µM, first compound 0.01 µM

pIC50 [1]: < 5.00 | pIC50 [2]: < 5.00 | pIC50 [3]: < 5.00 | pIC50 [4]: < 5.00 | pIC50 [5]: < 5.00 | pIC50 [6]: < 5.00
SMILES: C=CC(=O)N1CCN(c2nc(=O)n(-c3c(C)ccnc3C(C)C)c3nc(-c4c(O)cccc4F)c(F)cc23)C(C)C1 (configuration not stated) + Cc1c(S(C)(=O)=O)c(-c2cc(F)cc(N3CCN(c4ccc(NS(=O)(=O)c5ccc(NC(CCN6CCC(C(=O)OCCCP(=O)(O)O)CC6)CSc6ccccc6)c(S(=O)(=O)C(F)(F)F)c5)cc4)CC3)c2)c(-c2ccc(Cl)cc2)n1C(C)C
viability, T/C [7]: 101% | viability, T/C [8]: 105% | viability, T/C [9]: 99.7% | viability, T/C [10]: 95.5% | viability, T/C (second compound 0.0316 µM, first compound 3.16 µM): 112% | viability, T/C (second compound 0.0316 µM, first compound 10 µM): 85.8% | viability, T/C [11]: 92.9% | viability, T/C [12]: 89.6% | viability, T/C [13]: 89% | viability, T/C [14]: 110% | viability, T/C (second compound 0.1 µM, first compound 3.16 µM): 92.3% | viability, T/C (second compound 0.1 µM, first compound 10 µM): 87.4% | viability, T/C [15]: 101% | viability, T/C [16]: 92.7% | viability, T/C [17]: 109% | viability, T/C [18]: 90.1% | viability, T/C (second compound 0.316 µM, first compound 3.16 µM): 89.5% | viability, T/C (second compound 0.316 µM, first compound 10 µM): 81.3% | viability, T/C [19]: 87.2% | viability, T/C [20]: 91.4% | viability, T/C [21]: 102% | viability, T/C [22]: 97.4% | viability, T/C (second compound 1 µM, first compound 3.16 µM): 101% | viability, T/C (second compound 1 µM, first compound 10 µM): 89.9% | viability, T/C [23]: 92.9% | viability, T/C [24]: 94.9% | viability, T/C (second compound 3.16 µM, first compound 0.316 µM): 103% | viability, T/C (second compound 3.16 µM, first compound 1 µM): 94.1% | viability, T/C (second compound 3.16 µM, first compound 3.16 µM): 89.5% | viability, T/C (second compound 3.16 µM, first compound 10 µM): 86.1% | viability, T/C [25]: 222% | viability, T/C [26]: 143% | viability, T/C (second compound 10 µM, first compound 0.316 µM): 171% | viability, T/C (second compound 10 µM, first compound 1 µM): 195% | viability, T/C (second compound 10 µM, first compound 3.16 µM): 233% | viability, T/C (second compound 10 µM, first compound 10 µM): 168%

pIC50 (curve of first compound, second compound 0.00316 µM): 8.49 | pIC50 (curve of first compound, second compound 0.01 µM): > 8.50 | pIC50 [1]: > 8.50 | pIC50 [2]: > 8.50 | pIC50 [3]: > 8.50 | pIC50 [4]: > 8.50
SMILES: COc1c(OCCCN2CCOCC2)ccc2c3n(c(=NC(=O)c4cnc(N)nc4)nc12)CCN3 + CNC(C)C(=O)NC1CN(S(=O)(=O)c2cccc(S(=O)(=O)N3CCC4CCC(C(=O)NC(c5ccccc5)c5ccccc5)N4C(=O)C(NC(=O)C(C)NC)C3)c2)CCC2CCC(C(=O)NC(c3ccccc3)c3ccccc3)N2C1=O
viability, T/C (second compound 0.00316 µM, first compound 0.00316 µM): 50.2% | viability, T/C (second compound 0.00316 µM, first compound 0.01 µM): 35.3% | viability, T/C (second compound 0.00316 µM, first compound 0.0316 µM): 14.7% | viability, T/C (second compound 0.00316 µM, first compound 0.1 µM): 8.43% | viability, T/C (second compound 0.00316 µM, first compound 0.316 µM): 8.17% | viability, T/C (second compound 0.00316 µM, first compound 1 µM): 8.35% | viability, T/C (second compound 0.01 µM, first compound 0.00316 µM): 10.9% | viability, T/C (second compound 0.01 µM, first compound 0.01 µM): 9.75% | viability, T/C (second compound 0.01 µM, first compound 0.0316 µM): 9.42% | viability, T/C (second compound 0.01 µM, first compound 0.1 µM): 8.15% | viability, T/C (second compound 0.01 µM, first compound 0.316 µM): 6.06% | viability, T/C (second compound 0.01 µM, first compound 1 µM): 8.55% | viability, T/C [27]: 12.6% | viability, T/C [28]: 10.9% | viability, T/C [7]: 9.42% | viability, T/C [8]: 9.87% | viability, T/C [9]: 7.86% | viability, T/C [10]: 8.09% | viability, T/C [29]: 13.9% | viability, T/C [30]: 11.1% | viability, T/C [11]: 10.8% | viability, T/C [12]: 12% | viability, T/C [13]: 10.7% | viability, T/C [14]: 8.86% | viability, T/C [31]: 11.8% | viability, T/C [32]: 9.96% | viability, T/C [15]: 10.1% | viability, T/C [16]: 10% | viability, T/C [17]: 8.17% | viability, T/C [18]: 8.52% | viability, T/C [33]: 11.3% | viability, T/C [34]: 9.91% | viability, T/C [19]: 13% | viability, T/C [20]: 10.5% | viability, T/C [21]: 9.23% | viability, T/C [22]: 9.11%

pIC50 [1]: < 7.00 | pIC50 [2]: < 7.00 | pIC50 [3]: < 7.00 | pIC50 [4]: < 7.00 | pIC50 [5]: < 7.00 | pIC50 [6]: < 7.00
SMILES: NC1CCC(NC2CC2c2ccccc2)CC1 (configuration not stated) + Cc1c(S(C)(=O)=O)c(-c2cc(F)cc(N3CCN(c4ccc(NS(=O)(=O)c5ccc(NC(CCN6CCC(C(=O)OCCCP(=O)(O)O)CC6)CSc6ccccc6)c(S(=O)(=O)C(F)(F)F)c5)cc4)CC3)c2)c(-c2ccc(Cl)cc2)n1C(C)C
viability, T/C (second compound 0.0316 µM, first compound 0.000316 µM): 120% | viability, T/C (second compound 0.0316 µM, first compound 0.001 µM): 93.7% | viability, T/C [27]: 93.3% | viability, T/C [28]: 103% | viability, T/C [7]: 99.9% | viability, T/C [8]: 106% | viability, T/C (second compound 0.1 µM, first compound 0.000316 µM): 96.7% | viability, T/C (second compound 0.1 µM, first compound 0.001 µM): 106% | viability, T/C [29]: 96.3% | viability, T/C [30]: 115% | viability, T/C [11]: 115% | viability, T/C [12]: 97.1% | viability, T/C (second compound 0.316 µM, first compound 0.000316 µM): 95.4% | viability, T/C (second compound 0.316 µM, first compound 0.001 µM): 87.7% | viability, T/C [31]: 113% | viability, T/C [32]: 97.1% | viability, T/C [15]: 91.7% | viability, T/C [16]: 100% | viability, T/C (second compound 1 µM, first compound 0.000316 µM): 85.4% | viability, T/C (second compound 1 µM, first compound 0.001 µM): 82.6% | viability, T/C [33]: 95% | viability, T/C [34]: 84.5% | viability, T/C [19]: 102% | viability, T/C [20]: 92.9% | viability, T/C (second compound 3.16 µM, first compound 0.000316 µM): 96.8% | viability, T/C (second compound 3.16 µM, first compound 0.001 µM): 83.8% | viability, T/C (second compound 3.16 µM, first compound 0.00316 µM): 87.5% | viability, T/C (second compound 3.16 µM, first compound 0.01 µM): 98.6% | viability, T/C [23]: 83.5% | viability, T/C [24]: 127% | viability, T/C (second compound 10 µM, first compound 0.000316 µM): 150% | viability, T/C (second compound 10 µM, first compound 0.001 µM): 195% | viability, T/C (second compound 10 µM, first compound 0.00316 µM): 149% | viability, T/C (second compound 10 µM, first compound 0.01 µM): 215% | viability, T/C [25]: 186% | viability, T/C [26]: 161%

pIC50 (compound alone, run of 11/15/2022): > 8.50 | pIC50 (curve of compound): 8.28 and 8.18
SMILES: CNC(C)C(=O)NC1CN(S(=O)(=O)c2cccc(S(=O)(=O)N3CCC4CCC(C(=O)NC(c5ccccc5)c5ccccc5)N4C(=O)C(NC(=O)C(C)NC)C3)c2)CCC2CCC(C(=O)NC(c3ccccc3)c3ccccc3)N2C1=O (configuration not stated)
viability, T/C (compound 0.01 µM): 14.2% [middle of 9 runs] | viability, T/C (compound 0.0316 µM): 11.7% [middle of 9 runs] | viability, T/C (compound 0.1 µM): 14.7% [middle of 8 runs] | viability, T/C (compound 0.316 µM): 13.2% [middle of 9 runs] | viability, T/C (compound 1 µM): 13.2% [middle of 9 runs]

pIC50 (curve of compound): < 5.00
SMILES: C#Cc1c(F)ccc2cc(O)cc(-c3ncc4c(N5CC6CCC(C5)N6)nc(OCC56CCCN5CC(F)C6)nc4c3F)c12 (configuration not stated)
viability, T/C (compound 0.0316 µM): 97% and 87.3% and 92.6% | viability, T/C (compound 0.1 µM): 102% and 115% and 97.1% | viability, T/C (compound 0.316 µM): 94.8% and 96.2% and 101% | viability, T/C (compound 1 µM): 103% and 97.7% and 108% | viability, T/C (compound 3.16 µM): 90.2% and 99% and 101% | viability, T/C (compound 10 µM): 87.2% and 87.3% and 87.7%

IC50 (compound alone, run of 11/07/2022): 94.5 nM [middle of 7 runs] | pIC50 (curve of compound): 7.15 and 6.97
SMILES: CCN1C(C(=O)NC23CCC(C(=O)O)(CC2)CC3)C(c2cccc(Cl)c2F)C2(C(=O)Nc3cc(Cl)ccc32)C12CCCCC2 (configuration not stated)
viability, T/C (compound 0.00949 µM): 102% [middle of 9 runs] | viability, T/C (compound 0.0949 µM): 48.1% [middle of 9 runs] | viability, T/C (compound 0.3 µM): 33.8% [middle of 9 runs] | viability, T/C (compound 0.949 µM): 23.2% [middle of 9 runs] | viability, T/C (compound 3 µM): 15.6% [middle of 9 runs]
